In patent US12043599B2, “Herbicidal compounds” (SYNGENTA PARTICIPATIONS AG, priority 2018, dated 2024):

Columns and labels:
Format in all cases: in vivo
Conditions in all cases: 250 g/h, evaluated after 13 days
[1] = tested on: Setaria faberi (SETFA); test: Post-emergence herbicidal glasshouse test, percentage damage
How it was run: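 Percentage damage was scored 13 days after treatment on a five-point scale (1=0-19% to 5=80-100%). Treatments were post-emergence sprays on 8-day-old wheat, barley and SETFA plants in a glasshouse (24/16 °C day/night, 14 h light, 65% humidity), using acetone/water 50:50 with 0.5% Tween 20 at the stated rates. Wheat additionally received cloquintocet-mexyl safener at 50 g/ha.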

[2] = tested on: Alopecurus myosuroides (ALOMY); test: as above
How it was run: (§1)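 Herbicidal effect was scored 13 days after a 250 g/h spray, using bands of 0-19% (1) through 80-100% (5). Sowing preceded spraying by 1 day for pre-emergence and 8 days for post-emergence. The glasshouse ran at 24/16 °C with 14 h light.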

[3] = tested on: Avena fatua (AVEFA); test: as above
How it was run: as §1

[4] = tested on: Lolium perenne (LOLPE); test: as above
How it was run: as §1

[5] = tested on: Echinochloa crus-galli (ECHCG); test: as above
How it was run: as §1

[6] = tested on: Alopecurus myosuroides (ALOMY); test: Pre-emergence herbicidal glasshouse test, percentage damage
How it was run: as §1

[7] = tested on: Avena fatua (AVEFA); test: as above
How it was run: as §1

[8] = tested on: Lolium perenne (LOLPE); test: as above
How it was run: as §1

[9] = tested on: Echinochloa crus-galli (ECHCG); test: as above
How it was run: as §1

[10] = tested on: Setaria faberi (SETFA); test: as above
How it was run: as §1

| Compound | SETFA POST percentage damage (five point scale) [1] | ALOMY POST percentage damage (five point scale) [2] | AVEFA POST percentage damage (five point scale) [3] | LOLPE POST percentage damage (five point scale) [4] | ECHCG POST percentage damage (five point scale) [5] | ALOMY PRE percentage damage (five point scale) [6] | AVEFA PRE percentage damage (five point scale) [7] | LOLPE PRE percentage damage (five point scale) [8] | ECHCG PRE percentage damage (five point scale) [9] | SETFA PRE percentage damage (five point scale) [10] |
| --- | --- | --- | --- | --- | --- | --- | --- | --- | --- | --- |
| CC#Cc1cc(C)c(C2C(=O)CC3(CCN(C(=O)C4=COCCO4)CC3)CC2=O)c(C)c1 [Compound A170] | 5 (5=80-100%) | 5 (5=80-100%) | 5 (5=80-100%) | 5 (5=80-100%) | 5 (5=80-100%) | 4 (4=60-79%) | 2 (2=20-39%) | 4 (4=60-79%) | 3 (3=40-59%) | 4 (4=60-79%) |
| CC#Cc1cc(C)c(C2C(=O)CC3(CCN(C(=O)COCC)CC3)CC2=O)c(C)c1 [Compound A148] | 5 (5=80-100%) | 5 (5=80-100%) | 5 (5=80-100%) | 5 (5=80-100%) | 5 (5=80-100%) | 5 (5=80-100%) | 5 (5=80-100%) | 5 (5=80-100%) | 5 (5=80-100%) | 5 (5=80-100%) |
| CC#Cc1cc(C)c(C2C(=O)CC3(CCN(C(=O)c4ccccc4)CC3)CC2=O)c(OC)c1 [Compound A73] | 5 (5=80-100%) | 5 (5=80-100%) | 5 (5=80-100%) | 5 (5=80-100%) | 5 (5=80-100%) | 5 (5=80-100%) | 5 (5=80-100%) | 5 (5=80-100%) | 5 (5=80-100%) | 5 (5=80-100%) |
| CC#Cc1cc(C)c(C2=C(OC(=O)C3CCC3)CC3(CCN(C(=O)C4CCC4)CC3)CC2=O)c(C)c1 [Compound P3] | 5 (5=80-100%) | 5 (5=80-100%) | 5 (5=80-100%) | 5 (5=80-100%) | 5 (5=80-100%) | 5 (5=80-100%) | 5 (5=80-100%) | 5 (5=80-100%) | 5 (5=80-100%) | 5 (5=80-100%) |
| CC#Cc1cc(C)c(C2C(=O)CC3(CCN(C(=O)[C@H](C)OC)CC3)CC2=O)c(C)c1 [Compound A153] | 5 (5=80-100%) | 5 (5=80-100%) | 5 (5=80-100%) | 5 (5=80-100%) | 5 (5=80-100%) | 5 (5=80-100%) | 5 (5=80-100%) | 5 (5=80-100%) | 5 (5=80-100%) | 5 (5=80-100%) |
| CC#Cc1cc(C)c(C2C(=O)CC3(CCN(C(=O)NC(=O)c4ccccc4)CC3)CC2=O)c(C)c1 [Compound A166] | 5 (5=80-100%) | 5 (5=80-100%) | 5 (5=80-100%) | 5 (5=80-100%) | 5 (5=80-100%) | 5 (5=80-100%) | 4 (4=60-79%) | 5 (5=80-100%) | 4 (4=60-79%) | 5 (5=80-100%) |
| CC#Cc1cc(C)c(C2C(=O)CC3(CCN(C(=O)NC(C)=O)CC3)CC2=O)c(C)c1 [Compound A71] | 5 (5=80-100%) | 5 (5=80-100%) | 5 (5=80-100%) | 5 (5=80-100%) | 5 (5=80-100%) | 5 (5=80-100%) | 5 (5=80-100%) | 5 (5=80-100%) | 5 (5=80-100%) | 5 (5=80-100%) |
| CC#Cc1cc(C)c(C2C(=O)CC3(CCN(C(=O)Cc4cnc[nH]4)CC3)CC2=O)c(C)c1 [Compound A196] | 5 (5=80-100%) | 5 (5=80-100%) | 5 (5=80-100%) | 5 (5=80-100%) | 5 (5=80-100%) | 3 (3=40-59%) | 4 (4=60-79%) | 5 (5=80-100%) | 5 (5=80-100%) | 5 (5=80-100%) |
| CC#Cc1cc(C)c(C2=C(OC(=O)c3ccccc3)CC3(CCN(C(=O)c4ccccc4)CC3)CC2=O)c(C)c1 [Compound P2] | 5 (5=80-100%) | 5 (5=80-100%) | 5 (5=80-100%) | 5 (5=80-100%) | 5 (5=80-100%) | 5 (5=80-100%) | 5 (5=80-100%) | 5 (5=80-100%) | 5 (5=80-100%) | 5 (5=80-100%) |
| CC#Cc1cc(C)c(C2C(=O)CC3(CCN(C(=O)N(C)C(=O)C(C)(C)C)CC3)CC2=O)c(C)c1 [Compound A165] | 5 (5=80-100%) | 5 (5=80-100%) | 5 (5=80-100%) | 5 (5=80-100%) | 5 (5=80-100%) | 4 (4=60-79%) | 4 (4=60-79%) | 4 (4=60-79%) | 5 (5=80-100%) | 5 (5=80-100%) |
| CC#Cc1cc(C)c(C2C(=O)CC3(CCN(C(=O)N(C)C(C)=O)CC3)CC2=O)c(C)c1 [Compound A86] | 5 (5=80-100%) | 5 (5=80-100%) | 5 (5=80-100%) | 5 (5=80-100%) | 5 (5=80-100%) | 5 (5=80-100%) | 5 (5=80-100%) | 5 (5=80-100%) | 5 (5=80-100%) | 5 (5=80-100%) |
| CC#Cc1cc(C)c(C2C(=O)CC3(CCN(C(=O)c4ccccc4F)CC3)CC2=O)c(C)c1 [Compound A84] | 5 (5=80-100%) | 5 (5=80-100%) | 5 (5=80-100%) | 5 (5=80-100%) | 5 (5=80-100%) | 5 (5=80-100%) | 4 (4=60-79%) | 5 (5=80-100%) | 5 (5=80-100%) | 5 (5=80-100%) |
| CC#Cc1cc(C)c(C2C(=O)CC3(CCN(C(=O)CCc4ccccn4)CC3)CC2=O)c(C)c1 [Compound A184] | 5 (5=80-100%) | 4 (4=60-79%) | 5 (5=80-100%) | 5 (5=80-100%) | 5 (5=80-100%) | 1 (1=0-19%) | 2 (2=20-39%) | 5 (5=80-100%) | 4 (4=60-79%) | 5 (5=80-100%) |
| CC#Cc1cc(C)c(C2=C(OC(=O)COC)CC3(CCN(C(=O)COC)CC3)CC2=O)c(C)c1 [Compound P18] | 5 (5=80-100%) | 5 (5=80-100%) | 5 (5=80-100%) | 5 (5=80-100%) | 5 (5=80-100%) | 5 (5=80-100%) | 5 (5=80-100%) | 5 (5=80-100%) | 5 (5=80-100%) | 5 (5=80-100%) |
